Assay results taken from ChEMBL document CHEMBL5150038, “Small-Molecule Receptor-Interacting Protein 1 (RIP1) Inhibitors as Therapeutic Agents for Multifaceted Diseases: Current Medicinal Chemistry Insights and Emerging Opportunities” (J Med Chem, 2022).

Legend:
[1] = Metabolic clearance in rat hepatocyte assessed as clearance measured per 10^6 cells; type: ADME, cell-based; conditions: hepatocytes, read-out: CLH
Hepatocyte = assay: Metabolic clearance in human hepatocyte assessed as clearance; type: ADME, cell-based; conditions: hepatocytes

Q: For `O=C(c1cnn(Cc2ccccc2)c1)N1CCOc2ccccc2C1`, which hepatocyte CLint [1] is on record?
A: 87 µL/min/1e6 cells

Q: What about the CLH (Hepatocyte) of the same molecule?
A: 42 µL/min/mg
